From US9241939B2, “Combination of (a) a phosphoinositide 3-kinase inhibitor and (b) a modulator of RAS/RAF/MEK pathway” (Novartis AG, priority 2008, dated 2016)
Where two headings read alike, the source gives them in different places.

Tests used:
BN472 tumors = assay: BN472 tumor model; type: in vivo; conditions: rat, weak and not significant
Protocol: FIG. 2: Rat bearing BN472 tumors were treated with the indicated compound at the indicated dose and schedule, either alone or in combination. Evolution of tumor growth were followed by callipering throughout the course of the study. *, P<0.05 (Dunnett's).
FIG. 3: Rat bearing BN472 tumors were treated with the indicated compound at the indicated dose and schedule, either alone or in combination. Evolution of body weight were followed throughout the course of the study. *, P<0.05 (Dunnett's).
In the BN472 tumor model administration of compound A at a dose of 10 mg/kg (p.o., 1q24h) or the Raf inhibitor Raf265 (at a dose of 2.5 mg/kg, po, […]) produced a weak and not significant antitumor activity (expressed as T/C) of either 83 and 76. The combination of compound A (10 mg/kg) with RAF265, however, produced a strong and statistically significant antitumor activity with a T/C of 34% (FIG. 2).

[1] = tested on: Akt; p70S6K or ERK in A549 cells; assay: Western-blotting of phosphorylated Akt, p70S6K and ERK; type: cell-based; conditions: incubated alone, 30 min, PD03251901 250 nM
Protocol: FIG. 1: A549 cells were incubated either with compound A, PD03251901 (250 nM) alone or in combination for 30 min. Cells were then harvested and estimation of phosphorylated levels of either Akt; p70S6K or ERK done by regular Western-blotting.

A549 cells = assay: standard methylene blue proliferation assay; type: cell-based
Protocol: The KRAS mutant NSCLC cell line was used in a standard methylene blue proliferation assay.
A549 cells were incubated with increasing amount of either compound A or PD0325901 (NVP-LBW624) alone or in combination, for 72 h and proliferation assessed with a standard methylene blue assay. The G150 were determined and CI quantified with the CalcuSyn software.

Compound	antitumor activity (expressed as T/C) (BN472 tumors; compound A 10 mg/kg p.o. 1q24h alone)	block of respective downstream effectors (ERK and Akt) [1]	GI50 (A549 cells; A549 cells, 72 h, compound A and PD0325901 (NVP-LBW624) in combination, read-out: GI50 (in nM) in combination) [nM]	Combination Index (CI) (A549 cells; A549 cells, 72 h, compound A with PD0325901 (NVP-LBW624), CalcuSyn software)	GI50 (A549 cells; Homo sapiens, A549, 72 h, A549 cells (KRAS mutant NSCLC), 72 h, single agent, read-out: GI50 (in nM) alone) [nM]	GI50 (A549 cells; Homo sapiens, A549, 72 h, A549 cells, 72 h, compound A and PD0325901 (NVP-LBW624) in combination, read-out: GI50 (in nM) in combination) [nM]	times less BEZ235 required for a similar decrease in proliferation (A549 cells; in presence of PD0325901) [times]	GI50 (A549 cells; Homo sapiens, A549, 72 h, read-out: GI50 (in nM) alone) [nM]	GI50 (A549 cells; Homo sapiens, A549, 72 h, read-out: GI50 (in nM) in combination) [nM]	antitumor activity (expressed as T/C) (BN472 tumors; Raf265 2.5 mg/kg po q24h alone)
Cn1c(=O)n(-c2ccc(C(C)(C)C#N)cc2)c2c3cc(-c4cnc5ccccc5c4)ccc3ncc21 [Compound A, 2-methyl-2-[4-(3-methyl-2-oxo-8-quinolin-3-yl-2,3-dihydro-imidazo[4,5-c]quinolin-1-yl)-phenyl]-propionitrile]	83	do block their respective downstream effectors	4.46	0.718	9.41	3.2	3			
O=C(NOC[C@H](O)CO)c1ccc(F)c(F)c1Nc1ccc(I)cc1F [PD0325901, reference compound]		do block their respective downstream effectors						36.8	11.5	
Cn1c(Nc2ccc(C(F)(F)F)cc2)nc2cc(Oc3ccnc(-c4ncc(C(F)(F)F)[nH]4)c3)ccc21 [RAF265, reference compound]										76
